The results in this text go back to patent US20250179066A1, “ZWITTERIONIC ANTIBACTERIAL COMPOUNDS” (Hoffmann-La Roche Inc., priority 2022, published 2025).

Counter-ions that a name gives are not always drawn.

In general, IC90 refers to the concentration at which the effect reaches the 90% level.

The test system of the test is Acinetobacter baumannii ATCC17961. Kind of test: Antimicrobial susceptibility testing: 90% growth inhibitory concentration (IC90) determination. In kind it is cell-based. The note with it: Acinetobacter baumannii, ATCC17961, 16 h, 90% growth inhibitory concentration against Acinetobacter baumannii ATCC17961, Iso-Sensitest broth, OD 600 nm over 16 h; read-out: ATCC 17961 IC90. The essentials: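 Twofold serial dilutions (e.g. 10 to 0.0195 μM final) in Iso-Sensitest broth inoculated at ~5×10^5 CFU/mL, incubated at 35±2° C. OD600 read every minute for 16 h; IC90 is the concentration inhibiting 90% of growth during logarithmic phase.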
With `Cn1c(-c2cn(-c3cc4[nH]cc(C(N)=O)c4cn3)nc2C(F)(F)F)cnc1C(=O)Nc1ccc(C(=O)N2CCN(C(=O)[C@H]3CC[N@+](CC(=O)O)(CC4CNC4)CC3)CC2)c(Cl)c1` [Example 157, cis-2-[1-(azetidin-3-ylmethyl)-4-[4-[4-[[5-[1-(3-carbamoyl-1H-pyrrolo[3,2-c]pyridin-6-yl)-3-(trifluoromethyl)pyrazol-4-yl]-1-methyl-imidazole-2-carbonyl]amino]-2-chloro-benzoyl]piperazine-1-carbonyl]piperidin-1-ium-1-yl]acetic acid. 1:1 2,2,2-trifluoroacetate], the concentration for an effect of 90% (IC90) is 368 nM. Take `Cn1c(-c2cn(-c3ccc(NCCN)cn3)nc2C(F)(F)F)cnc1C(=O)Nc1ccc(C(=O)N2CCN(C(=O)CCC[N+](CCCCN)(CCCCN)CC(=O)O)CC2)c(Cl)c1` [Example 36, bis(4-aminobutyl)-[4-[4-[4-[[5-[1-[5-(2-aminoethylamino)-2-pyridyl]-3-(trifluoromethyl)pyrazol-4-yl]-1-methyl-imidazole-2-carbonyl]amino]-2-chloro-benzoyl]piperazino]-4-keto-butyl]-(carboxymethyl)ammonium. 1:2 2,2,2-trifluoroacetic acid. 1:1 2,2,2-trifluoroacetate]: the IC90 is 420 nM. The same measure for `Cn1c(-c2cn(-c3ccc4[nH]ccc4n3)nc2C(F)(F)F)cnc1C(=O)Nc1ccc(C(=O)N2CCN(C(=O)CCC[N+](CCCCN)(CCCCN)CC(=O)O)CC2)c(Cl)c1` [Example 9, Bis(4-aminobutyl)-(carboxymethyl)-[4-[4-[2-chloro-4-[[1-methyl-5-[1-(1H-pyrrolo[3,2-b]pyridin-5-yl)-3-(trifluoromethyl)pyrazol-4-yl]imidazole-2-carbonyl]amino]benzoyl]piperazino]-4-keto-butyl]ammonium.1:1 2,2,2-trifluoroacetic Acid. 1:1 2,2,2-trifluoroacetate]: 100 nM; for `Cn1c(-c2cn(-c3ccc(N)cn3)nc2C(F)(F)F)cnc1C(=O)Nc1ccc(C(=O)N2CCN(C(=O)CCC[N+](CC(=O)O)(CC3CNC3)CC3CNC3)CC2)c(Cl)c1` [Example 50, [4-[4-[4-[[5-[1-(5-amino-2-pyridyl)-3-(trifluoromethyl)pyrazol-4-yl]-1-methyl-imidazole-2-carbonyl]amino]-2-chloro-benzoyl]piperazino]-4-keto-butyl]-bis(azetidin-3-ylmethyl)-(carboxymethyl)ammonium. 1:1 2,2,2-trifluoroacetic acid. 1:1 2,2,2-trifluoroacetate]: 520 nM. Turning to `Cn1c(-c2cn(-c3ccc(N)cn3)nc2C(F)(F)F)cnc1C(=O)Nc1ccc(C(=O)N2CCC(C(=O)N3CC[N+](CCCN)(CC(=O)O)CC3)CC2)c(Cl)c1` [Example 75, 2-[1-(3-aminopropyl)-4-[1-[4-[[5-[1-(5-amino-2-pyridyl)-3-(trifluoromethyl)pyrazol-4-yl]-1-methyl-imidazole-2-carbonyl]amino]-2-chloro-benzoyl]piperidine-4-carbonyl]piperazin-1-ium-1-yl]acetic acid. 1:1 2,2,2-trifluoroacetate], the IC90 stood at 950 nM. For the compound `COCC1CN(C(=O)c2ccc(NC(=O)c3ncc(-c4cn(-c5ccc(N)cn5)nc4C(F)(F)F)n3C)cc2Cl)CCN1C(=O)C1CC[N+](CC(=O)O)(CC2CNC2)CC1` (stereo not shown) [Example 97, 2-[4-[4-[4-[[5-[1-(5-amino-2-pyridyl)-3-(trifluoromethyl)pyrazol-4-yl]-1-methyl-imidazole-2-carbonyl]amino]-2-chloro-benzoyl]-2-(methoxymethyl)piperazine-1-carbonyl]-1-(azetidin-3-ylmethyl)piperidin-1-ium-1-yl]acetic acid. 1:1 formate], the IC90 came out at 1840 nM. Under `Cn1c(-c2cn(-c3cc4[nH]cc(C(=O)N5CC[C@H](O)C5)c4cn3)nc2C(F)(F)F)cnc1C(=O)Nc1ccc(C(=O)N2CCN(C(=O)[C@H]3CC[N@+](CC(=O)O)(CC4CNC4)CC3)CC2)c(Cl)c1` [Example 155, cis-2-[1-(azetidin-3-ylmethyl)-4-[4-[2-chloro-4-[[5-[1-[3-[(3S)-3-hydroxypyrrolidine-1-carbonyl]-1H-pyrrolo[3,2-c]pyridin-6-yl]-3-(trifluoromethyl)pyrazol-4-yl]-1-methyl-imidazole-2-carbonyl]amino]benzoyl]piperazine-1-carbonyl]piperidin-1-ium-1-yl]acetic acid. 1:1 2,2,2-trifluoroacetate] stands 329 nM.

Regarding `Cn1c(-c2cn(-c3ccc(N)cc3F)nc2C(F)(F)F)cnc1C(=O)Nc1ccc(C(=O)N2CCN(C(=O)C3CC[N+](CC(=O)O)(CC4CNC4)CC3)CC2)c(Cl)c1` (stereo not shown) [Example 17, 2-[4-[4-[4-[[5-[1-(4-amino-2-fluoro-phenyl)-3-(trifluoromethyl)pyrazol-4-yl]-1-methyl-imidazole-2-carbonyl]amino]-2-chloro-benzoyl]piperazine-1-carbonyl]-1-(azetidin-3-ylmethyl)piperidin-1-ium-1-yl]acetic acid. 1:1 2,2,2-trifluoroacetate], the IC90 turned out to be 240 nM. Under `Cn1c(-c2cn(-c3cc4[nH]ccc4cn3)nc2C(F)(F)F)cnc1C(=O)Nc1ccc(C(=O)N2CCN(C(=O)[C@H]3CC[N@+](CC(=O)O)(CC4CNC4)CC3)CC2)c(Cl)c1` [Example 14, cis-2-[1-(azetidin-3-ylmethyl)-4-[4-[2-chloro-4-[[1-methyl-5-[1-(1H-pyrrolo[3,2-c]pyridin-6-yl)-3-(trifluoromethyl)pyrazol-4-yl]imidazole-2-carbonyl]amino]benzoyl]piperazine-1-carbonyl]piperidin-1-ium-1-yl]acetic acid. 1:1 2,2,2-trifluoroacetate] stands 200 nM. The same measure for `Cn1c(-c2cn(-c3ccc4[nH]c(CCO)cc4n3)nc2C(F)(F)F)cnc1C(=O)Nc1ccc(C(=O)N2CCN(C(=O)[C@H]3CC[N@+](CC(=O)O)(CC4CNC4)CC3)CC2)c(Cl)c1` [Example 162, cis-2-[1-(azetidin-3-ylmethyl)-4-[4-[2-chloro-4-[[5-[1-[2-(2-hydroxyethyl)-1H-pyrrolo[3,2-b]pyridin-5-yl]-3-(trifluoromethyl)pyrazol-4-yl]-1-methyl-imidazole-2-carbonyl]amino]benzoyl]piperazine-1-carbonyl]piperidin-1-ium-1-yl]acetic acid;formate]: 203 nM; for `Cn1c(-c2cn(-c3cc4[nH]cc(C(=O)N5CCOCC5)c4cn3)nc2C(F)(F)F)cnc1C(=O)Nc1ccc(C(=O)N2CCN(C(=O)[C@H]3CC[N@+](CC(=O)O)(CC4CNC4)CC3)CC2)c(Cl)c1` [Example 177, cis-2-[1-(azetidin-3-ylmethyl)-4-[4-[2-chloro-4-[[1-methyl-5-[1-[3-(morpholine-4-carbonyl)-1H-pyrrolo[3,2-c]pyridin-6-yl]-3-(trifluoromethyl)pyrazol-4-yl]imidazole-2-carbonyl]amino]benzoyl]piperazine-1-carbonyl]piperidin-1-ium-1-yl]acetic acid. 1:1 2,2,2-trifluoroacetate]: 201 nM. For the compound `Cn1c(-c2cn(-c3ccc4[nH]ccc4n3)nc2C(F)(F)F)cnc1C(=O)Nc1ccc(C(=O)N2CCN(C(=O)CCC[N+](CCCN)(CCCN)CC(=O)O)CC2)c(Cl)c1` [Example 13, bis(3-aminopropyl)-(carboxymethyl)-[4-[4-[2-chloro-4-[[1-methyl-5-[1-(1H-pyrrolo[3,2-b]pyridin-5-yl)-3-(trifluoromethyl)pyrazol-4-yl]imidazole-2-carbonyl]amino]benzoyl]piperazino]-4-keto-butyl]ammonium. 1:1 2,2,2-trifluoroacetic acid. 1:1 2,2,2-trifluoroacetate], the IC90 is 200 nM.

In the case of `Cn1c(-c2cn(-c3cccc(N)n3)nc2C(F)(F)F)cnc1C(=O)Nc1ccc(C(=O)N2CCN(C(=O)[C@H]3CC[N@+](CC(=O)O)(CC4CNC4)CC3)CC2)c(Cl)c1` [Example 192, cis-2-[4-[4-[4-[[5-[1-(6-amino-2-pyridyl)-3-(trifluoromethyl)pyrazol-4-yl]-1-methyl-imidazole-2-carbonyl]amino]-2-chloro-benzoyl]piperazine-1-carbonyl]-1-(azetidin-3-ylmethyl)piperidin-1-ium-1-yl]acetic acid. 1:1 2,2,2-trifluoroacetate], the IC90 was 265 nM. As to `Cn1c(-c2cn(-c3cc4[nH]c(C(=O)NO)cc4cn3)nc2C(F)(F)F)cnc1C(=O)Nc1ccc(C(=O)N2CCN(C(=O)[C@H]3CC[N@+](CC(=O)O)(CC4CNC4)CC3)CC2)c(Cl)c1` [Example 125, cis-2-[1-(azetidin-3-ylmethyl)-4-[4-[2-chloro-4-[[5-[1-[2-(hydroxycarbamoyl)-1H-pyrrolo[3,2-c]pyridin-6-yl]-3-(trifluoromethyl)pyrazol-4-yl]-1-methyl-imidazole-2-carbonyl]amino]benzoyl]piperazine-1-carbonyl]piperidin-1-ium-1-yl]acetic acid. 1:1 2,2,2-trifluoroacetate], the IC90 turned out to be 361 nM. `Cn1c(-c2cn(-c3cc(N)ccn3)nc2C(F)(F)F)cnc1C(=O)Nc1ccc(C(=O)N2CCN(C(=O)C3CC[N+](CC(=O)O)(CC4CNC4)CC3)CC2)c(Cl)c1` (stereo not shown) [Example 71, 2-[4-[4-[4-[[5-[1-(4-amino-2-pyridyl)-3-(trifluoromethyl)pyrazol-4-yl]-1-methyl-imidazole-2-carbonyl]amino]-2-chloro-benzoyl]piperazine-1-carbonyl]-1-(azetidin-3-ylmethyl)piperidin-1-ium-1-yl]acetic acid. 1:1 2,2,2-trifluoroacetate]: the IC90 is 860 nM.

With `CNc1ccnc(-n2cc(-c3cnc(C(=O)Nc4ccc(C(=O)N5CCN(C(=O)C6CC[N+](CC(=O)O)(CC7CNC7)CC6)CC5)c(Cl)c4)n3C)c(C(F)(F)F)n2)c1` (stereo not shown) [Example 52, 2-[1-(azetidin-3-ylmethyl)-4-[4-[2-chloro-4-[[1-methyl-5-[1-[4-(methylamino)-2-pyridyl]-3-(trifluoromethyl)pyrazol-4-yl]imidazole-2-carbonyl]amino]benzoyl]piperazine-1-carbonyl]piperidin-1-ium-1-yl]acetic acid. 1:1 2,2,2-trifluoroacetate], the IC90 came out at 530 nM.
